Measurements reported in US10071103B2, “Treatments for resistant acne” (VYOME BIOSCIENCES PVT. LTD., priority 2014, dated 2018).
≈ marks a conversion by molar mass, not a printed value. Where two headings read alike, the source gives them in different places.

Experiments:
[1] = test system: S. aureus MTCC 6908; test: MIC by micro broth dilution, laboratory S. aureus strain; assay type: cell-based, Staphylococcus aureus; settings: Staphylococcus aureus, MTCC6908; Table 6; read-out: MIC Susceptible S. aureus (6908) strain
Description: The plates were incubated at 37° C. for 48 h under anaerobic condition for P. acnes and 37° C. for 24 h for S. aureus The plates were read under Bio-Rad plate reader at 595 nm for optical density to generate the dose-response curves. The MIC of the test compound was recorded by addition of Alamar blue dye.
S. aureus MTCC 6908 were grown in Tryptone Soya Agar (TSA) at 37° C. for 24 hours. […] Plates were incubated at 37° C. for 24 hours. […] (2) Zone of Inhibition (ZOI): S. aureus MTCC 6908 were grown in Tryptone Soya Agar (TSA) at 37° C. for 24 hours. BHA plates are spreaded with 100 μl of 0.5 McFarland standard equal bacterial suspension. Test samples (drugs/formulations) were dissolved in water/solvent based on the solubility. Sterile disc (6 mm) were loaded with 10 μl of test samples (of various concentration of drug), and were placed above the spreaded plates. Plates were incubated at 37 C for 24 h, followed by ZOI measurement. (3) Time Kill Assay: 0.5 McFarland standard equal S. aureus culture was prepared in sterile water. Besifloxacin gels were diluted in Tryptone Soya broth (TSB) to get final concentration of 25 μg/ml. Then 900 μl of S. aureus 0.5 McFarland standard equal culture and 100 μl of diluted Besifloxacin gel was mixed to obtain final Besifloxacin concentration, 2.5 μl g/ml. Total reaction mixture (1 ml) was incubated at 37° C. in a tube rotator. After 2 and 6 h exposure, bacterial suspension was placed on Tryptone soya agar plate and incubated at 37° C. for 24 h.
Inoculated plates were incubated at 37° C. for 24 hours.

[2] = test system: THP-1 cells; test: Viability of THP-1 cells under treatment; assay type: cell-based; settings: 25 μg/ml of compound 91
[3] = test system: P. acnes MTCC 1951; assay type: cell-based, Propionibacterium acnes; settings: for MPC/MIC: ratio against P. acnes
Description: 3 to 4 Petri plates containing 48 h P. acnes culture was suspended in sterile Phosphate buffer saline, PBS (pH 7.2) and turbidity was adjusted to optical density of 1 at 600 nm (10^9 cells/ml). 50 ml of this culture suspension was centrifuged at 4000 rpm for 40 min. The supernatant was discarded and pellet resuspended in 250 μl of sterile PBS. 50 μl of these cell suspensions (10^10 cells) was spread over the plates containing various concentrations of antibiotics (around MIC range). Plates were incubated at 37° C. for 48 h and the lowest concentration of the drug that allowed no growth was taken as its MPC.

[4] = test system: P. acnes CCARM 9010; test: MIC by micro broth dilution (Alamar blue), clindamycin-resistant/nonresponsive P. acnes; assay type: cell-based, Propionibacterium acnes; settings: for Activity / bacterial killing, dose response curve (in words): clindamycin-nonresponsive CCARM 9010

Cc1ncc([N+](=O)[O-])n1CC(O)CN1CCN(c2cc3c(cc2F)c(=O)c(C(=O)O)c2n3C(C)S2)CC1 (centres unmarked) [Compound 91, 6-Fluoro-7-{4-[2-hydroxy-3-(2-methyl-5-nitro-imidazol-1-yl)-propyl]-piperazin-1-yl}-1-methyl-4-oxo-4H-2-thia-8b-aza-cyclobuta[a]naphthalene-3-carboxylic acid]
MIC [1]: 1.5 µg/mL (≈ 2.82 µM)
Viability of THP-1 cells [2]: 90%
MPC ([3]; P. acnes, 10^10 cells inoculum): 0.3 to 0.6 µg/mL
MPC/MIC [3]: 1.5-3
MPC/MIC ([3]; listed as compound 91): 1.5
MIC ([4]; Cutibacterium acnes, CCARM9010, read-out: MIC Resistant P. acnes (9010) strain): 0.1 µg/mL (≈ 0.188 µM)
Activity / bacterial killing, dose response curve (in words) [4]: highly efficacious bacterial killing profile
Activity / bacterial killing, dose response curve (in words) ([4]; listed as compound 91): lower MIC value and faster bacterial killing profile
